ChEMBL document CHEMBL5137081, “N-Heterocyclic 3-Pyridyl Carboxamide Inhibitors of DHODH for the Treatment of Acute Myelogenous Leukemia” (J Med Chem, 2022)
pIC50: −log10 of the molar value. Converted amounts (≈) assume the structure as drawn.

Columns and labels:
[1] = target: Dihydroorotate dehydrogenase (quinone), mitochondrial (Homo sapiens, UniProt Q02127); assay: Inhibition of His fused human DHODH expressed in Escherichia coli using DHO as substrate by DCIP absorbance based colorimetry assay
[2] = tested on: MOLM-13; assay: Antiproliferative activity against human MOLM-13 cells incubated for 72 hrs by CellTiter-Glo assay; type: functional, cell-based; details: MOLM-13, 72 h
[3] = Solubility of compound at pH 7 by HPLC analysis; type: physicochemical; details: buffer
[4] = target: Dihydroorotate dehydrogenase (quinone), mitochondrial (Mus musculus, UniProt O35435); assay: Inhibition of mouse DHODH
[5] = target: Dihydroorotate dehydrogenase (quinone), mitochondrial (Rattus norvegicus, UniProt Q63707); assay: Inhibition of rat DHODH
[6] = Inhibition of dog DHODH; parameters: species or system Canis lupus familiaris
[7] = Metabolic stability in mouse liver microsome assessed as intrinsic clearance pretreated for 5 mins followed by NADPH addition and measured upto 60 mins by HPLC-MS/MS analysis; type: ADME; details: liver microsomes, time < 65 min, read-out: CLH
[8] = Metabolic stability in rat liver microsome assessed as intrinsic clearance pretreated for 5 mins followed by NADPH addition and measured upto 60 mins by HPLC-MS/MS analysis; type: ADME; details: liver microsomes, time < 65 min, read-out: CLH
[9] = Metabolic stability in dog liver microsome assessed as intrinsic clearance pretreated for 5 mins followed by NADPH addition and measured upto 60 mins by HPLC-MS/MS analysis; type: ADME, Canis lupus familiaris; details: liver microsomes, time < 65 min, read-out: CLH
[10] = Stability in human hepatocytes assessed as intrinsic clearance measured per 10^6 cells incubated upto 120 mins by LC-MS/MS analysis; type: ADME, cell-based, Hepatocyte; details: 2 h
[11] = Intrinsic clearance in dog hepatocytes measured per 10^6 cells; type: ADME, cell-based, Canis lupus familiaris, Hepatocyte
[12] = Plasma protein binding in human assessed as free fraction at 1 uM by equilibrium dialysis based LC-MS/MS analysis; type: ADME, cell-free
[13] = Plasma protein binding in mouse assessed as free fraction at 1 uM by equilibrium dialysis based LC-MS/MS analysis; type: ADME, cell-free
[14] = Plasma protein binding in rat assessed as free fraction at 1 uM by equilibrium dialysis based LC-MS/MS analysis; type: ADME, cell-free
[15] = Plasma protein binding in dog assessed as free fraction at 1 uM by equilibrium dialysis based LC-MS/MS analysis; type: ADME, cell-free, Canis lupus familiaris
[16] = target: Voltage-gated inwardly rectifying potassium channel KCNH2 (Homo sapiens, UniProt Q12809); assay: Inhibition of hERG expressed in HEK293 cells by radioligand binding assay; type: toxicity, cell-based
[17] = Lipophilicity, logD of compound at pH 7.4; type: physicochemical; details: buffer
[18] = target: T1, Cytochrome P450 1A2 (Homo sapiens, UniProt P05177); assay: Inhibition of CYP1A2 in human liver microsomes incubated for 10 mins by LC-MS/MS analysis; type: ADME, Microsome
T1 sequence (P05177 whole entry): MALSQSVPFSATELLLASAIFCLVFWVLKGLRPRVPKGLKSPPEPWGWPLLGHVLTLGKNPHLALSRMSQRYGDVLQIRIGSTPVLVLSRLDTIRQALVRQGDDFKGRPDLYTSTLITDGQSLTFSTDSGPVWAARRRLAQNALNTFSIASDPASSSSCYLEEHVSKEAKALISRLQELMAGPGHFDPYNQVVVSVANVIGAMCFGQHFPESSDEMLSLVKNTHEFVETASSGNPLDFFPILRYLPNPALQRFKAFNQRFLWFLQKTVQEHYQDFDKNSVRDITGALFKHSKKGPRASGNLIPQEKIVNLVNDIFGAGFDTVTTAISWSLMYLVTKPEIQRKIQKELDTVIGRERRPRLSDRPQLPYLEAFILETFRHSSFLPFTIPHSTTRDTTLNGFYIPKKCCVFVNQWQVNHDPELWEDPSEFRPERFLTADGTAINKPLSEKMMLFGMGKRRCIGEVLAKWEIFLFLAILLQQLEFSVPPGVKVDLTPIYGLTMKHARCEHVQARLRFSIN

[19] = target: T2, Cytochrome P450 2C8 (Homo sapiens, UniProt P10632); assay: Inhibition of CYP2C8 in human liver microsomes incubated for 10 mins by LC-MS/MS analysis; type: ADME, Microsome
T2 sequence (P10632 whole entry): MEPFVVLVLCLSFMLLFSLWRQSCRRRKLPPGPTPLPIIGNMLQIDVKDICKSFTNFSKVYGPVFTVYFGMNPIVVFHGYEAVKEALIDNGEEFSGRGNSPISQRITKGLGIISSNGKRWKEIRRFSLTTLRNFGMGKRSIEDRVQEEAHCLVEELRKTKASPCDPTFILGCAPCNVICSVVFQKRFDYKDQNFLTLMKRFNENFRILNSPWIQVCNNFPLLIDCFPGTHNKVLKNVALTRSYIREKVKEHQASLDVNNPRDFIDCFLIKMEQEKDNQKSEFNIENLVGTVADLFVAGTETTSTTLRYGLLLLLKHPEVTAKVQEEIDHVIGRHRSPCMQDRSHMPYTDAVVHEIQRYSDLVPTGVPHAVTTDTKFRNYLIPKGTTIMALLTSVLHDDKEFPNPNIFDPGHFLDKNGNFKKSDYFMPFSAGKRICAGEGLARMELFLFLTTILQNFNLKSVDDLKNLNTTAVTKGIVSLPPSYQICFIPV

[20] = target: Cytochrome P450 2C9 (Homo sapiens, UniProt P11712); assay: Inhibition of CYP2C9 in human liver microsomes incubated for 10 mins by LC-MS/MS analysis; type: ADME, Microsome
[21] = target: Cytochrome P450 2D6 (Homo sapiens, UniProt P10635); assay: Inhibition of CYP2D6 in human liver microsomes incubated for 10 mins by LC-MS/MS analysis; type: ADME, Microsome
[22] = target: Cytochrome P450 3A4 (Homo sapiens, UniProt P08684); assay: Inhibition of CYP3A4 in human liver microsomes using midazolam as substrate measured after 5 mins by LC-MS/MS analysis; type: ADME, Microsome
[23] = Cmax in Sprague-Dawley rat at 10 mg/kg, po or 2 mg/kg, iv measured upto 24 hrs by LC-MS/MS analysis; type: ADME, organism-based; parameters: dose 10 mg/kg, time < 24 hrs, route po; details: in vivo
[24] = Cmax in C57BL/6 mouse at 10 mg/kg, po or 2 mg/kg, iv measured upto 24 hrs by LC-MS/MS analysis; type: ADME, organism-based; parameters: time < 24 hrs, dose 10 mg/kg, route po; details: in vivo
[25] = Tmax in Sprague-Dawley rat at 10 mg/kg, po or 2 mg/kg, iv measured upto 24 hrs by LC-MS/MS analysis; type: ADME, organism-based; details: in vivo
[26] = Tmax in C57BL/6 mouse at 10 mg/kg, po or 2 mg/kg, iv measured upto 24 hrs by LC-MS/MS analysis; type: ADME, organism-based; details: in vivo
[27] = AUC(0 to infinity) in Sprague-Dawley rat at 10 mg/kg, po or 2 mg/kg, iv measured upto 24 hrs by LC-MS/MS analysis; type: ADME, organism-based; parameters: dose 10 mg/kg, time < 24 hrs, route po; details: in vivo
[28] = AUC(0 to infinity) in C57BL/6 mouse at 10 mg/kg, po or 2 mg/kg, iv measured upto 24 hrs by LC-MS/MS analysis; type: ADME, organism-based; parameters: time < 24 hrs, dose 10 mg/kg, route po; details: in vivo
[29] = Oral bioavailability in Sprague-Dawley rat at 10 mg/kg measured upto 24 hrs by LC-MS/MS analysis; type: ADME, organism-based; details: in vivo
[30] = Oral bioavailability in C57BL/6 mouse at 10 mg/kg measured upto 24 hrs by LC-MS/MS analysis; type: ADME, organism-based; details: in vivo

Sequence of Voltage-gated inwardly rectifying potassium channel KCNH2 (Q12809 whole entry): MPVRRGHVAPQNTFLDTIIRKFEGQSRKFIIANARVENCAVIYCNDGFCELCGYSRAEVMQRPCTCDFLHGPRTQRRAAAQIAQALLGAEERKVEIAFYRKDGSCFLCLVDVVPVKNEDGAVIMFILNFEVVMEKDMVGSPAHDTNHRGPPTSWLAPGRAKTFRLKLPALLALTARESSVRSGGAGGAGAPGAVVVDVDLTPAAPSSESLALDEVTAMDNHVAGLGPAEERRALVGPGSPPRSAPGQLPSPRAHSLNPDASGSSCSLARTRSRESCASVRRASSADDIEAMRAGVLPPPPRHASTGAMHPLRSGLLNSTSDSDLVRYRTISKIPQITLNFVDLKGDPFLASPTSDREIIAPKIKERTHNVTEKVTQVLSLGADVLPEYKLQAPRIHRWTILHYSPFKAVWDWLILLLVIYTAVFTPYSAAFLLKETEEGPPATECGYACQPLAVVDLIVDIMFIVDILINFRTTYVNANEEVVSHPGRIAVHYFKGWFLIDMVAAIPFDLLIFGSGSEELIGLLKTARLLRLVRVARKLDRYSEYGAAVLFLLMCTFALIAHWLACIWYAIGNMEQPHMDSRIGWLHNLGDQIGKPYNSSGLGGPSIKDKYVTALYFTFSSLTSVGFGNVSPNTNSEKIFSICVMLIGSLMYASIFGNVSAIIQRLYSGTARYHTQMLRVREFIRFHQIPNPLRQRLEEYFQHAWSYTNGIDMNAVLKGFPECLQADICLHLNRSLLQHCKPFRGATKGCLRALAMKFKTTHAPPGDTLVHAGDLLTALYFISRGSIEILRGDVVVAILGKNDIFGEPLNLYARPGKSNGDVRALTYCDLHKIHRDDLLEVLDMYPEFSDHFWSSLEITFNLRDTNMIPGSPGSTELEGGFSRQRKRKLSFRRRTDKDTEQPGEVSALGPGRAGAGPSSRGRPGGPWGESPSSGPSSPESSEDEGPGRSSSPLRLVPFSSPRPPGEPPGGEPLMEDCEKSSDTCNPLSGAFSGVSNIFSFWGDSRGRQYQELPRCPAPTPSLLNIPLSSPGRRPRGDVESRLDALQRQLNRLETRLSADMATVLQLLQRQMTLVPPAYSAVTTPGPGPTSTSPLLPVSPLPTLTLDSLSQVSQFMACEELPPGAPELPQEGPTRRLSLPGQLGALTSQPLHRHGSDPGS
Sequence of Cytochrome P450 2C9 (P11712 whole entry): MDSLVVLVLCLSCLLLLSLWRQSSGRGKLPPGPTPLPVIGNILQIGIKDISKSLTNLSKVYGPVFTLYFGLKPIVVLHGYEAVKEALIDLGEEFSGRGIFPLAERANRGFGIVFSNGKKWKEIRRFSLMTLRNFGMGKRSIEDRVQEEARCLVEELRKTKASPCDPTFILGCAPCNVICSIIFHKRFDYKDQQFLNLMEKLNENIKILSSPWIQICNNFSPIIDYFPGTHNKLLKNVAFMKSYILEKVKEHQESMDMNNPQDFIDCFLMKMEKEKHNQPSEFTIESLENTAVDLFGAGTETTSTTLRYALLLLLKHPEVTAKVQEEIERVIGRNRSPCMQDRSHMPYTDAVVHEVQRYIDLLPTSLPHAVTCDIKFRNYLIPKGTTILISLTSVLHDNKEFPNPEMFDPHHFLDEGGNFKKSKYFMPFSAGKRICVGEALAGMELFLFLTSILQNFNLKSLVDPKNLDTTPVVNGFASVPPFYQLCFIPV
Sequence of Dihydroorotate dehydrogenase (quinone), mitochondrial (Mus musculus, UniProt O35435) (O35435 whole entry): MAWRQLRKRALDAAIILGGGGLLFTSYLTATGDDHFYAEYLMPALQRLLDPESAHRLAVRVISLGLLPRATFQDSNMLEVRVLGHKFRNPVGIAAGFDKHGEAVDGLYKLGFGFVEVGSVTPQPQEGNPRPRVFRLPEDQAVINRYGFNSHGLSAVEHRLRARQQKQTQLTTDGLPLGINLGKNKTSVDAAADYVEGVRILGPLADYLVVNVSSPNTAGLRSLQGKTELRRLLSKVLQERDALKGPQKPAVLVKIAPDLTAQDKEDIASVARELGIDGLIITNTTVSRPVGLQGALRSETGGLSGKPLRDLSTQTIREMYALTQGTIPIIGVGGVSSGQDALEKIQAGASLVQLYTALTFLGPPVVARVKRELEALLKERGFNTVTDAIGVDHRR
Sequence of Dihydroorotate dehydrogenase (quinone), mitochondrial (Homo sapiens, UniProt Q02127) (Q02127 whole entry, the tested form may be a part): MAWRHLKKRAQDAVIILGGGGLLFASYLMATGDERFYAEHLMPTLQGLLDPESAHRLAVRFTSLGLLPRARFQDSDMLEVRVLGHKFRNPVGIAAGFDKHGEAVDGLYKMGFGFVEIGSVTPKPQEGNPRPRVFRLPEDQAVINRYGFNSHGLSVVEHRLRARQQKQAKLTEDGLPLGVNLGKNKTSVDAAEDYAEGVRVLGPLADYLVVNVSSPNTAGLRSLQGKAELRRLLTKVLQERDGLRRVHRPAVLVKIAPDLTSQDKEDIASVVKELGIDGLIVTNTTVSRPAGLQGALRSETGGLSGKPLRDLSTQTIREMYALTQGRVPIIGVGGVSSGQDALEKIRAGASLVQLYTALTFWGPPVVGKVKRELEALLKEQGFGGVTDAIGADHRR
Sequence of Cytochrome P450 2D6 (P10635 whole entry): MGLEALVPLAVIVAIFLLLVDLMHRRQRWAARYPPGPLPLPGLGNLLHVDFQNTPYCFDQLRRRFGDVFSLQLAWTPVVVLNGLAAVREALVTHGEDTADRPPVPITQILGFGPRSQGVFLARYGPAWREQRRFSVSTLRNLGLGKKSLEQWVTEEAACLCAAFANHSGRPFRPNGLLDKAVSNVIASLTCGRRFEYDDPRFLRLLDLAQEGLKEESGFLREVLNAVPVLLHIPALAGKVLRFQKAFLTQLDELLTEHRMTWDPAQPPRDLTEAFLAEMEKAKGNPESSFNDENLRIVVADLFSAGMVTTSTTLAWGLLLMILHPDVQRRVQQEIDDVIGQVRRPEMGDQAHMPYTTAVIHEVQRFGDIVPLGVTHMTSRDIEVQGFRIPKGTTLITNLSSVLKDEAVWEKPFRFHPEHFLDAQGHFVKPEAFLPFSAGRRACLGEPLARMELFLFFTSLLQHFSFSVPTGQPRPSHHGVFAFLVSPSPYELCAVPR
Sequence of Dihydroorotate dehydrogenase (quinone), mitochondrial (Rattus norvegicus, UniProt Q63707) (Q63707 whole entry): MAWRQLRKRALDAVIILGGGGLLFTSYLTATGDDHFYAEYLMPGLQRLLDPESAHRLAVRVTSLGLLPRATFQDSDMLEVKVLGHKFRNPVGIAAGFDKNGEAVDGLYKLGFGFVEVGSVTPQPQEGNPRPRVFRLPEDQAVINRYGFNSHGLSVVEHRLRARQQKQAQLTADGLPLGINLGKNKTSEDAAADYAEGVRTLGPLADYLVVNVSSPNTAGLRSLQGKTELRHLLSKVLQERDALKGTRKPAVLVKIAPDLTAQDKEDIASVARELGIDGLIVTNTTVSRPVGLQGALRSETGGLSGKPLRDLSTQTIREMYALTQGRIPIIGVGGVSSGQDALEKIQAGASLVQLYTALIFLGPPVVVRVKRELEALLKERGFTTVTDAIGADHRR
Sequence of Cytochrome P450 3A4 (P08684 whole entry): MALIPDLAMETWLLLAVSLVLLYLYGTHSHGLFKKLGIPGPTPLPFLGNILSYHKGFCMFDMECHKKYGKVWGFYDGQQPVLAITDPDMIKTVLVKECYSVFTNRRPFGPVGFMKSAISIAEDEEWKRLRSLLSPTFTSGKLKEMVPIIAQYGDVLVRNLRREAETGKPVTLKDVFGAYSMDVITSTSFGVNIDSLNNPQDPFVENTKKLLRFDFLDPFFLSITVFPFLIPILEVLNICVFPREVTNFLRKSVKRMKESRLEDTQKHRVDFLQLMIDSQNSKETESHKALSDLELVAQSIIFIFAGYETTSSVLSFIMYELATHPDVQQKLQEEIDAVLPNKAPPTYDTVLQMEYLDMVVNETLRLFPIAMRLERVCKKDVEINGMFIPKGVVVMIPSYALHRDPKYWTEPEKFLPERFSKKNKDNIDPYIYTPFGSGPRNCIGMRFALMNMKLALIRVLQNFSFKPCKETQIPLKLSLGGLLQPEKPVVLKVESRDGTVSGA

**Q.** With `CCn1c(CO)nn(-c2nc(O[C@@H](C)C(F)(F)F)c(C(=O)Nc3c(C)ccnc3Cl)cc2F)c1=O` as the compound, how does the pIC50 [1] read?
**A.** 8.96

**Q.** What about the pIC50 [2] of the same compound?
**A.** 8.70

**Q.** And the solubility [3]?
**A.** > 400 µM

**Q.** And the pIC50 [4]?
**A.** 6.85

**Q.** What about the pIC50 [5] of the same compound?
**A.** 5.80

**Q.** And the pIC50 [6]?
**A.** 8.07

**Q.** What about the CLint scaled [7] of the same compound?
**A.** 5.7 mL/min/kg

**Q.** What about the CLint scaled [8] of the same compound?
**A.** 5.2 mL/min/kg

**Q.** And the CLint scaled [9]?
**A.** 8.3 mL/min/kg

**Q.** And the CLH [10]?
**A.** < 1.9 µL/min/1e6 cells

**Q.** What about the CLH [11] of the same compound?
**A.** 8.3 µL/min/1e6 cells

**Q.** And the fraction unbound at 1 µM [12]?
**A.** 0.38

**Q.** And the fraction unbound at 1 µM [13]?
**A.** 0.23

**Q.** What about the fraction unbound at 1 µM [14] of the same compound?
**A.** 0.28

**Q.** What about the fraction unbound at 1 µM [15] of the same compound?
**A.** 0.33

**Q.** What about the pIC50 [16] of the same compound?
**A.** < 5.00

**Q.** What about the logD [17] of the same compound?
**A.** 2.7

**Q.** What about the pIC50 [18] of the same compound?
**A.** < 5.00

**Q.** What about the pIC50 [19] of the same compound?
**A.** < 5.00

**Q.** What about the pIC50 [20] of the same compound?
**A.** < 5.00

**Q.** What about the pIC50 [21] of the same compound?
**A.** < 5.00

**Q.** What about the pIC50 [22] of the same compound?
**A.** < 5.00

**Q.** And the Cmax [23]?
**A.** 1710 ng/mL

**Q.** And the Cmax [24]?
**A.** 4050 ng/mL

**Q.** And the Tmax [25]?
**A.** 1.7 h

**Q.** What about the Tmax [26] of the same compound?
**A.** 0.42 h

**Q.** What about the AUC(0-inf) [27] of the same compound?
**A.** 9210 ng·h/mL

**Q.** What about the AUC(0-inf) [28] of the same compound?
**A.** 16100 ng·h/mL

**Q.** And the F ([29]; po, 10 mg/kg, 24 h)?
**A.** 167%

**Q.** What about the bioavailability [30] of the same compound?
**A.** 103%

**Q.** With `CCn1c(CO)nn(-c2nc(O[C@@H](C)C(F)(F)F)c(C(=O)Nc3c(C)cnc(OC)c3Cl)cc2F)c1=O` as the compound, how does the pIC50 [1] read?
**A.** 9.52

**Q.** What about the pIC50 [2] of the same compound?
**A.** 9.40

**Q.** What about the solubility [3] of the same compound?
**A.** 5 µM (≈ 2.74 µg/mL)

**Q.** And the pIC50 [4]?
**A.** 8.00

**Q.** What about the pIC50 [5] of the same compound?
**A.** 6.89

**Q.** And the pIC50 [6]?
**A.** 8.38

**Q.** And the CLint scaled [7]?
**A.** 5.5 mL/min/kg

**Q.** What about the CLint scaled [8] of the same compound?
**A.** 6.2 mL/min/kg

**Q.** What about the CLint scaled [9] of the same compound?
**A.** 86 mL/min/kg

**Q.** And the CLH [10]?
**A.** 2.3 µL/min/1e6 cells

**Q.** What about the CLH [11] of the same compound?
**A.** 86 µL/min/1e6 cells

**Q.** What about the fraction unbound at 1 µM [12] of the same compound?
**A.** 0.063

**Q.** And the fraction unbound at 1 µM [13]?
**A.** 0.062

**Q.** What about the fraction unbound at 1 µM [14] of the same compound?
**A.** 0.078

**Q.** What about the fraction unbound at 1 µM [15] of the same compound?
**A.** 0.042

**Q.** What about the pIC50 [16] of the same compound?
**A.** < 5.00

**Q.** What about the logD [17] of the same compound?
**A.** 2.4

**Q.** What about the pIC50 [18] of the same compound?
**A.** < 5.00

**Q.** And the pIC50 [19]?
**A.** < 5.00

**Q.** And the pIC50 [20]?
**A.** < 5.00

**Q.** What about the pIC50 [21] of the same compound?
**A.** < 5.00

**Q.** And the pIC50 [22]?
**A.** < 5.00

**Q.** What about the Cmax [23] of the same compound?
**A.** 2190 ng/mL

**Q.** And the Cmax [24]?
**A.** 3810 ng/mL

**Q.** And the Tmax [25]?
**A.** 4 h

**Q.** What about the Tmax [26] of the same compound?
**A.** 1 h

**Q.** And the AUC(0-inf) [27]?
**A.** 23800 ng·h/mL

**Q.** What about the AUC(0-inf) [28] of the same compound?
**A.** 25000 ng·h/mL

**Q.** And the bioavailability ([29]; Sprague-Dawley)?
**A.** 106%

**Q.** What about the bioavailability [30] of the same compound?
**A.** 110%
